Laboratory results reported in US10933032B2, “Methods for the treatment of cancer using coenzyme Q10 combination therapies” (Berg LLC, priority 2013, dated 2021).

Key:
[1] = tested on: MDA-MB213 breast cancer cells; assay: Basal oxygen consumption rate (OCR) and extracellular acidification rate (ECAR); type: cell-based; details: 100 μM CoQ10 for 24 hours, FIG. 17
Method: Cells were treated with 100 μM CoQ10 for 24 hours.
Mitochondria represent a significant source of ROS which are known to participate in activation of cell death pathways.

[2] = tested on: triple-negative breast cancer (TNBC) xenografts; assay: Triple-negative breast cancer (TNBC) xenograft, survival; type: in vivo, Mice; details: FIG. 21
HepG2 = assay: Induction of early apoptosis (Bcl-2, annexin V, or caspase activation); type: cell-based; details: LIVER: HepG2
Method: (§1) The effects of Coenzyme Q10 treatment on a variety of oncogenic and normal cell lines were examined and compared. The sensitivity of cells to Coenzyme Q10 was assessed by monitoring induction of apoptosis. CoQ10 treatment of cells was carried out as described in detail below in the Materials and Methods. Induction of apoptosis was assessed in the treated cells by monitoring indicators of early apoptosis (e.g., Bcl-2 expression, caspase activation and by using annexin V assays) as described below. From these studies, the minimal CoQ10 dosage, e.g., concentration of CoQ10 and time of treatment, required to induce apoptosis in the panel of cell lines was determined.
(§2) Cells were cultured in T-75 flasks with relevant medium supplemented with 10% Fetal Bovine Serum (FBS), 1% PSA (penicillin, streptomycin, amphotericin B) (Invitrogen and Cellgro) in a 37° C. incubator with 5% CO2 levels until 70-80% confluence was reached. To harvest cells for treatment, flasks were primed with 1 mL Trypsin, aspirated, trypsinized with an additional 3 mL, and incubated at 37° C. for 3-5 minutes. Cells were then neutralized with an equal volume of media and the subsequent solution was centrifuged at […] for 8 minutes. The supernatant was aspirated and the cells were resuspended with 8.5 ml of media. A mixture of 500 ul of the resuspension and 9.5 ml of […] was read twice by a coulter counter and the appropriate number of cells to be seeded into each dish was determined. Control and concentration ranging from 0-200 μM groups were examined in triplicate. From a 500 μM CoQ-10 stock solution, serial dilutions were performed to achieve desired experimental concentration in appropriate dishes. Dishes were incubated in a 37° C. incubator with 5% CO2 levels for 0-72 hours depending on cell type and experimental protocol.
(§3) Following cell treatment incubation period was complete, protein isolation was performed. Dishes of all treatment groups were washed twice with 2 ml, and once with 1 ml of ice cold 1× Phosphate Buffered Saline (PBS). The PBS was aspirated from the dishes after the initial 2 washes only. Cells were gently scraped and collected into microcentrifuge tubes using the final volume from the third wash and centrifuged at 10,000 rpm for 10 minutes. After centrifugation, the supernatant was aspirated and the pellet was lysed with 50 uL of lysis buffer (1 uL of protease and phosphotase inhibitor for every 100 uL of lysis buffer). Samples were then frozen overnight at −20° C.
(§4) After the cell treatment incubation period was complete, protein isolation was performed. Flasks of all treatment groups were washed twice with 5 mL, and once with 3 mL of ice cold 1×PBS. The PBS was aspirated from the flasks after the first 2 washes only. Cells were gently scraped and collected into 15 mL centrifuge tubes using the final volume from the third wash and centrifuged for at 10,000 rpm for 10 minutes. After centrifugation, the supernatant was aspirated and the pellet was lysed with an appropriate amount of lysis buffer (1 uL of protease and phosphotase inhibitor for every 100 uL of lysis buffer). Lysis buffer volume was dependent on pellet size. Samples were transferred in microcentrifuge tubes and frozen overnight at −20° C.
(§5) Samples were thawed at […] and sonicated to ensure homogenization the day following protein isolation. Protein quantification was performed using the micro BCA protein assay kit (Pierce). To prepare samples for Immuno-blotting, a 1:19 solution of betamercaptoethanol (Sigma) to sample buffer (Bio-Rad) was prepared. Samples were diluted 1:1 with the betamercaptoethanol-sample buffer solution, boiled at 95° C. for 5 minutes, and frozen overnight at −20° C.
(§6) The volume of sample to load per well was determined using the raw mean concentration of protein obtained from the BCA protein assay. Approximately 30-60 μg of protein were loaded for each treatment time point. […]

[3] = tested on: SCC, Squamous cell carcinoma; assay: as above; type: cell-based; details: SKIN: SCC
Method: as §1, §2, §3, §4, §5, §6

Fibroblasts (nFib) = assay: as above; type: cell-based; details: SKIN: Fibroblasts (nFib)
Method: as §1, §2, §3, §4, §5, §6

Hep3B = assay: as above; type: cell-based; details: LIVER: Hep3B
Method: as §1, §2, §3, §4, §5, §6

Ewing's sarcoma (NCI) = assay: as above; type: cell-based; details: BONE: Ewing's sarcoma (NCI)
Method: as §1, §2, §3, §4, §5, §6

PC3 = assay: as above; type: cell-based; details: PROSTATE: PC3
Method: as §1, §2, §3, §4, §5, §6

PaCa2 = assay: as above; type: cell-based; details: PANCREAS: PaCa2
Method: as §1, §2, §3, §4, §5, §6

BT-20 = assay: as above; type: cell-based; details: BREAST: BT-20
Method: as §1, §2, §3, §4, §5, §6

MDA MB 468 = assay: as above; type: cell-based; details: BREAST: MDA MB 468
Method: as §1, §2, §3, §4, §5, §6

Osteosarcoma (143b) = assay: as above; type: cell-based; details: BONE: Osteosarcoma (143b)
Method: as §1, §2, §3, §4, §5, §6

Melanoma (Skmel 28) = assay: as above; type: cell-based; details: SKIN: Melanoma (Skmel 28)
Method: as §1, §2, §3, §4, §5, §6

[4] = background statement; cited from earlier work
[5] = tested on: MIAPaCa-2 pancreatic cancer cells; type: cell-based; details: CoQ10 (100 μM) pre-treatment (6 hours) and co-treatment regimen, FIGS. 11-14
in vivo = details: rat, rats, given three times per week for 4 weeks
tumors = details: Example 8, written in present tense
Method: In an in vivo tumor xenograft model, mice are implanted with tumors. For example, MIAPaCa-2 pancreatic cancer cells suspended in [sequence] are injected into NSG mice. Alternatively, other tumor cell lines, e.g., triple negative breast cancer, hepatic cancer, prostate cancer, melanoma, sarcoma, carcinoma cell lines, are used in the xenograft mouse model.
Various sequential regimens and combinations of CoQ10 and chemotherapeutic agents are tested for the ability to reduce tumor burden and/or reduce tumor metastasis. […] For example, in some animals, 2 or more cycles of CoQ10 are administered in Treatment 1 prior to one or more cycles of the chemotherapeutic agent in Treatment 2. In some animals, one cycle of CoQ10 is administered in Treatment 1 prior to administration of multiple cycles of chemotherapy in Treatment 2.
Tumor volumes are monitored using routine methods, e.g., calipers, imaging analysis. At the end of the study, tumors are excised and analyzed for using routine methods, e.g., for size (e.g., weight and volume), histological characteristics, grade, and vascularization.

Compound: COC1=C(OC)C(=O)C(C/C=C(\C)CC/C=C(\C)CC/C=C(\C)CC/C=C(\C)CC/C=C(\C)CC/C=C(\C)CC/C=C(\C)CC/C=C(\C)CC/C=C(\C)CCC=C(C)C)=C(C)C1=O [CoQ10, Coenzyme Q10]
- Ratio of OCR to ECAR [1]: higher ratio of OCR to ECAR
- Survival, CoQ10 in combination with the TAC regimen ([2]; 75 mg/kg CoQ10, TAC: 5 mg/kg docetaxel, 1 mg/mg doxorubicin, 35 mg/kg cyclophosphamide every three weeks for six cycles): significantly improved survival
- Survival, CoQ10 alone ([2]; 75 mg/kg body weight CoQ10 (BPM 31510)): significantly improved survival
- Indication of Early apoptosis (Bcl-2, annexin V, or caspase activation) (HepG2): Very Strong
- Minimal CoQ10 concentration required for induction of early apoptosis, Concentration (HepG2): 50 µM
- Minimal treatment time required for induction of early apoptosis, Time (HepG2): 24 h
- Indication of Early apoptosis (Bcl-2, annexin V, or caspase activation) [3]: Very Strong
- Minimal CoQ10 concentration required for induction of early apoptosis, Concentration [3]: 25 µM
- Minimal treatment time required for induction of early apoptosis, Time [3]: 24 h
- Indication of Early apoptosis (Bcl-2, annexin V, or caspase activation) (Fibroblasts (nFib)): None
- Indication of Early apoptosis (Bcl-2, annexin V, or caspase activation) (Hep3B): Very Strong
- Minimal CoQ10 concentration required for induction of early apoptosis, Concentration (Hep3B): 50 µM
- Minimal treatment time required for induction of early apoptosis, Time (Hep3B): 24 h
- Minimal CoQ10 concentration required for induction of early apoptosis, Concentration (Ewing's sarcoma (NCI)): 5 µM
- Minimal treatment time required for induction of early apoptosis, Time (Ewing's sarcoma (NCI)): 1 h
- Indication of Early apoptosis (Bcl-2, annexin V, or caspase activation) (Ewing's sarcoma (NCI); cell wraps: Extremely / strong): Extremely
- Indication of Early apoptosis (Bcl-2, annexin V, or caspase activation) (PC3): Very Strong
- Minimal CoQ10 concentration required for induction of early apoptosis, Concentration (PC3): 25 µM
- Minimal treatment time required for induction of early apoptosis, Time (PC3): 24 h
- Indication of Early apoptosis (Bcl-2, annexin V, or caspase activation) (PaCa2): Very Strong
- Minimal CoQ10 concentration required for induction of early apoptosis, Concentration (PaCa2): 25 µM
- Minimal treatment time required for induction of early apoptosis, Time (PaCa2): 24 h
- Indication of Early apoptosis (Bcl-2, annexin V, or caspase activation) (BT-20): Strong
- Minimal CoQ10 concentration required for induction of early apoptosis, Concentration (BT-20): 100 µM
- Minimal treatment time required for induction of early apoptosis, Time (BT-20): 48 h
- Indication of Early apoptosis (Bcl-2, annexin V, or caspase activation) (MDA MB 468): Strong
- Minimal CoQ10 concentration required for induction of early apoptosis, Concentration (MDA MB 468): 100 µM
- Minimal treatment time required for induction of early apoptosis, Time (MDA MB 468): 48 h
- Indication of Early apoptosis (Bcl-2, annexin V, or caspase activation) (Osteosarcoma (143b)): Very Strong
- Minimal CoQ10 concentration required for induction of early apoptosis, Concentration (Osteosarcoma (143b)): 50 µM
- Minimal treatment time required for induction of early apoptosis, Time (Osteosarcoma (143b)): 48 h
- Indication of Early apoptosis (Bcl-2, annexin V, or caspase activation) (Melanoma (Skmel 28)): Strong
- Minimal CoQ10 concentration required for induction of early apoptosis, Concentration (Melanoma (Skmel 28)): 20 µM
- Minimal treatment time required for induction of early apoptosis, Time (Melanoma (Skmel 28)): 24 h
- Lipophilicity [4]: very lipophilic
- Solubility in water [4]: insoluble in water
- Cytotoxic potential of gemcitabine [5]: augmented the cytotoxic potential of gemcitabine
- MTD at 4 weeks (in vivo): 250 mg/kg
- Efficacy (tumor burden), one or more cycles of CoQ10 prior to a chemotherapeutic agent (tumors): more effective than co-administration of CoQ10 with a chemotherapeutic agent or a chemotherapeutic agent alone
